Results: patent US20260240846A1, “ZAK ALPHA KINASE (MAP3K20) INHIBITORS FOR USE IN THE TREATMENT OF ANEMIA” (UNIVERSIDAD DE MURCIA, priority 2023, published 2026)

What was measured:
[1] = test system: K562 cells; experiment: Transcriptomic analysis (RNA seq) and RT-qPCR of erythroid genes in K562 cells; type: cell-based, human
Description: FIG. 12. Nilotinib promotes an erythroid gene expression profile in human K562 cells. K562 cells were pretreated with the indicated concentrations of 0.1 μM nilotinib, for 24 h and then differentiated with 50 μM hemin for additional 24 h. RNA was extracted and transcriptomic analysis performed by RNA seq. (A) Heatmap of selected erythroid genes. (B) Validation of nilotinib-induced erythroid genes by RT-qPCR. Each dot represents a biological replicate and the mean±SEM for each group is also shown.

[2] = target: ZAKα (Homo sapiens, UniProt Q9NYL2); details: cited from earlier work
[3] = test system: zebrafish larvae; experiment: Chemical treatment of zebrafish larvae by bath immersion; counting of neutrophils and erythrocytes; type: in vivo, Zebrafish (Danio rerio H.)
Description: FIG. 3. ZAKα regulates hematopoiesis in zebrafish through the Nlrp1 inflammasome. Number of neutrophils (B, D, H), erythrocytes (F) and macrophages (J), and caspase-1 activity (K) in 2 dpf larvae either treated from 1 to 2 dpf by bath immersion with 1 μM nilotinib and/or 100 μM anisomycin (A-D) or obtained by injecting one-cell stage embryos with standard or zaka crRNAs/Cas9 complexes (E-K). Representative images of neutrophils (A, C, G), erythrocytes (E) and macrophages (I) are also shown. Each dot represents one individual and the mean±SEM for each group is also shown. P values were calculated using one-way ANOVA and Tukey's multiple range test (B) or Student's t-test (D, F, H, J, K). n.s., non-significant; *P<0.05; **P<0.01; ***P<0.001.
FIG. 6. NLRP1 is activated by phosphorylation of the linker domain after activation of ZAKα and pharmacological inhibition of this signaling pathway promotes erythropoiesis in DBA. (A-D) Number of neutrophils (A-C), and caspase-1 activity (D) in 2 dpf larvae obtained by injection of one-cell stage embryos with human NLRP1 (wild type-WT, S107A and S107D) and treated from 1 to 2 dpf by bath immersion with 1 μM nilotinib (B-D). Representative images of neutrophils (arrows) are also shown in C. (E, F) BMMCs from a DBA patient were incubated for 2 weeks in human methylcellulose complete medium at 37° C. in the presence or absence of the indicated concentrations of nilotinib, and colonies were counted using standard morphological criteria. Each dot represents one individual and the mean±SEM for each group is also shown. P values were calculated by one-way ANOVA and Tukey's multiple range test. n.s., non-significant; *P<0.05; **P<0.01; ***P<0.001; ****P<0.0001.
FIG. 10. Imatinib and dasatinib promote erythropoiesis in human and zebrafish. (A) K562 cells were pretreated with the indicated concentrations of nilotinib, imatinib or dasatinib for 24 h and then differentiated with 50 μM hemin for 24 h. The amounts of NLRP1, GATA1, phosphorylated P38, total ZAKα and ACTB were then evaluated by western blot. (B) Zebrafish larvae were treated from 1 to 2 dpf with the indicated concentrations of nilotinib, imatinib or dasatinib. Representative images and number of neutrophils in larvae of 2 dpf treated by bath immersion with the indicated concentrations of imatinib and dasatinib. Each dot represents one individual and the mean±SEM for each group is also shown. P values were calculated by one-way ANOVA and Tukey's multiple range test. n.s., non-significant. ***P<0.001; ****P<0.0001.
FIG. 11. Ponatinib and bosutinib promote erythropoiesis in human and zebrafish. (A) K562 cells were pretreated with the indicated concentrations of nilotinib, ponatinib and bosutinib for 24 h and then differentiated with 50 μM hemin for the indicated times. The amounts of NLRP1, total ZAKα, GATA1, phosphorylated P38 and ACTB were then evaluated by western blot. (B) Number of neutrophils in larvae of 2 dpf treated by bath immersion with the indicated concentrations of ponatinib and bosutinib. Each dot represents one individual and the mean±SEM for each group is also shown. P values were calculated by one-way ANOVA and Tukey's multiple range test. n.s., non-significant, *P<0.05. **P<0.01. ***P<0.001.
Zebrafish (Danio rerio H.) were obtained from the Zebrafish International Resource Center and mated, staged, raised and processed as described in The Zebarfish Book. The lines Tg(mpx:eGFP)^t114, Tg(lyz:DsRED2)^n250, Tg(mfap4:mCherry)^ump6, Tg(gata1a:DsRed)^sd2 Tg(runx1:GAL4)^utn6), Tg(UAS-E1B:NTR-mCherry) and casper (mitfa^w2/w2; mpv17^a9/a9) were previously described. spint1a^hi2217Tg/hi2217Tg was isolated from insertional mutagenesis screens. The experiments performed comply with the Guidelines of the European Union Council (Directive 2010/63/EU) and the Spanish RD 53/2013. The experiments and procedures performed were approved by the Bioethical Committees of the University of Murcia (approval number #669/2020). […]

[4] = test system: caspase-1; experiment: CASP1 activity in RPS19-edited model of DBA; type: cell-based, human; details: 0.1 μM nilotinib (FIG. 14D)
Description: FIG. 14. Nilotinib promotes erythropoiesis in a human RPS19-edited model of DBA. RPS19 gene was edited in primary human CD34^+/CD133^+ cells with CRISPR-Cas9 technology and the cells were then differentiated with EPO for 13 days in the presence of absence of 0.1 μM nilotinib. (A) Representative flow cytometry dot plots of CD235-APC vs. CD71-FITC from control and RPS19-edited cells at 13 days of differentiation with EPO. (B) Cell surface expression of CD235A from control (mock) and RPS19-deficient cells treated with DMSO or nilotinib. (C) Percentage of mature erythrocytes (CD71^−/CD235A^+) vs. percentage of erythroid progenitors (CD71^+/CD235A^−) in RPS19-deficient cells treated with DMSO or 0.1 μM nilotinib. (D) CASP1 activity of control and RPS19-deficient cells treated with DMSO or 0.1 μM nilotinib. MFI, mean fluorescence intensity.

Sequence of ZAKα (Q9NYL2 whole entry): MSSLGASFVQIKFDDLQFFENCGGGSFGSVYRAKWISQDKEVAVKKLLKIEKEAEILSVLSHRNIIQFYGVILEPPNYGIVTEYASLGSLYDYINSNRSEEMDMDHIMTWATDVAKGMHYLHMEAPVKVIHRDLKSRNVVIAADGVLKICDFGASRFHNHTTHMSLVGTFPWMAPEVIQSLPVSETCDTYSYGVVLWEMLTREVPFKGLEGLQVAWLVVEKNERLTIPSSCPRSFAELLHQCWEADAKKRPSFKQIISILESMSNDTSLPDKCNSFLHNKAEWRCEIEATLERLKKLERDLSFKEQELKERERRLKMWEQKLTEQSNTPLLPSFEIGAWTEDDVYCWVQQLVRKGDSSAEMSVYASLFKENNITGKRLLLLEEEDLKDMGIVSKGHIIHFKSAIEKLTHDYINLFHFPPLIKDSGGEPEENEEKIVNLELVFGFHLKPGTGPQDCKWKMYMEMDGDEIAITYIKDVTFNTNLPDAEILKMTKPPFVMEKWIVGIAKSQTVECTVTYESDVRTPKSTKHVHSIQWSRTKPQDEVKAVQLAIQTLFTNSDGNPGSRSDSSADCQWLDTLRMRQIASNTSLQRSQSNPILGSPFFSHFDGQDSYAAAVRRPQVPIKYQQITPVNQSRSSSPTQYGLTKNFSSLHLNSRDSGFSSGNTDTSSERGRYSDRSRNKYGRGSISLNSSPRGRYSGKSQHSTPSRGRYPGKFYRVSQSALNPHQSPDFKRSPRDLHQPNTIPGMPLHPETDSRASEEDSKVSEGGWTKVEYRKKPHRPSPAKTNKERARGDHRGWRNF

## Cc1cn(-c2cc(NC(=O)c3ccc(C)c(Nc4nccc(-c5cccnc5)n4)c3)cc(C(F)(F)F)c2)cn1 [nilotinib]
[1]; K562 cells incubated with nilotinib
  transcript levels of erythroid genes (RT-qPCR): increased transcript levels
[1]; K562 cells, 0.1 μM nilotinib 24 h, control cells and upon hemin 24 h, RNA seq
  expression of erythroid genes (transcriptomic analysis): robustly induced
[2]
  affinity for ZAKα: high affinity
[3]; larvae 2 dpf, bath immersion 1 to 2 dpf, 1 μM nilotinib
  neutrophilia in the Spint1a-deficient model of neutrophilic inflammation: reduced neutrophilia
[3]; larvae expressing human NLRP1 S107D, 1 μM nilotinib 1 to 2 dpf
  neutrophilia induced by NLRP1 with phosphomimetic S107D mutation: failed to reverse
[3]; larvae expressing human wild type NLRP1, 1 μM nilotinib 1 to 2 dpf
  neutrophilia induced by wild type NLRP1: able to abrogate
[3]; nilotinib (FIGS. 3E and 3F)
  erythropoiesis in zebrafish: Promote erythropoiesis in zebrafish
[3]; wild type larvae 2 dpf, bath immersion 1 to 2 dpf, 1 μM nilotinib, 100 μM anisomycin
  neutrophil number: caused a decrease in neutrophil number
[4]
  exacerbated caspase-1 activity of RPS19-deficient cells: reduced to control levels
